Source: patent publication US5942502A, “Method of treating diseases resulting from calcium metabolism disorders” (priority 1998, dated 1999)
“Also recorded” adds a separate entry of the source. Read-outs that look alike come from different tables or passages of the source.

What was measured:
[1] = cited from earlier work
[2] = in vivo; cited from earlier work
[3] = tested on: female beagle dogs; assay: Chronic dosing toxicity, three months oral; format: in vivo, dog (beagle); conditions: 0.3 mg/kg orally each day for three months
Method: With respect to chronic dosing, a group of six female beagle dogs were given 0.3 mg/kg of either ST-630 or 1α-hydroxyvitamin D3 orally each day for three months.

[4] = cited from earlier work; remark: listed apart in the source
[5] = Acute toxicity (LD50), single dose; format: in vivo, rat; conditions: rat, in vivo; single (acute) dose, male rats, at 14 days
Source text: LD50 data represent the dose administered resulting in the death of 50% of the test group.

[6] = tested on: Ovariectomized rats; assay: Ovariectomized rat model: serum Ca and P, femur dry weight, ash weight and breaking load; format: in vivo, Female Fisher rats; conditions: for Serum Pi / Breaking load (femur) / Serum Ca / Ash weight (femur) / Dry weight (femur): three times a week for 23 weeks, Mean ± SD; for Serum Pi: OVX 2.6 ± 0.4; for Breaking load (femur): OVX 9.0 ± 0.9; for Serum Ca: OVX 9.7 ± 0.2; for Ash weight (femur): OVX 285 ± 19; for Dry weight (femur): OVX 431 ± 26
Source text: Female Fisher rats, 9-10 months old, were ovariectomized and were fed a vitamin D-deficient diet containing 0.45% calcium and 0.3% phosphorus. The rats were given 15IU of vitamin D3 orally once a week throughout this experiment. Four weeks after the surgery, the rats were orally adminstered three times a week for 23 weeks with ST-630 (30, 100 or 300 pmole/kg) or 1α-hydroxyvitamin D3 (100 or 300 pmole/kg).

[7] = compared with 1,25-(OH)2 D3; cited from earlier work
[8] = tested on: postmenopausal osteoporosis; conditions: average dose 0.8 μg per day, cited from earlier work
[9] = tested on: postmenopausal osteoporosis; conditions: cited from earlier work
[10] = especially with conventional calcium supplement treatment
[11] = dose response over the doses tested

Compound: C=C1/C(=C\C=C2/CCC[C@]3(C)[C@@H]([C@H](C)CCC(O)C(C)(C)O)CC[C@@H]23)C[C@@H](O)CC1O (stereo partly drawn) [1,24,25-trihydroxyvitamin D3]
- hypercalcemia ([1]; in vivo): causing hypercalcemia

Compound: C=C1/C(=C\C=C2/CCC[C@]3(C)[C@@H]([C@H](C)/C=C/[C@@H](C)C(C)(C)O)CC[C@@H]23)C[C@@H](O)C[C@@H]1O [1α,25-dihydroxy-24-epi-vitamin D2]
- intestinal calcium transport [2]: increasing intestinal calcium transport
- mineralization of new bone [2]: stimulating the mineralization of new bone
- mobilizing calcium from bone [2]: minimal effectiveness

Compound: C=C1/C(=C\C=C2/CCC[C@]3(C)[C@@H]([C@H](C)/C=C/[C@H](C)C(C)(C)O)CC[C@@H]23)C[C@@H](O)C[C@@H]1O [1α,25-dihydroxyvitamin D2]
- hypercalcemia [1, 10]: causing hypercalcemia

Compound: C=C1/C(=C\C=C2/CCC[C@]3(C)[C@@H]([C@H](C)/C=C/[C@H](C)C(C)C)CC[C@@H]23)C[C@@H](O)C[C@@H]1O [1α-hydroxyvitamin D2]
- hypercalcemia [1, 10]: causing hypercalcemia

Compound: C=C1/C(=C\C=C2/CCC[C@]3(C)[C@@H]([C@H](C)CCCC(C)C)CC[C@@H]23)C[C@@H](O)C[C@@H]1O [1α-hydroxyvitamin D3, reference compound]
- deaths [3]: two of six dogs
- safe dose used for human administration ([4]; humans): 1 µg/day
- LD50 at 336 h [5]: 0.2 mg/kg
- Serum Pi ([6]; 100 pmole/kg p.o.): 3.8 ± 0.3 mg/100 ml
- Breaking load (femur) ([6]; 100 pmole/kg p.o.): 9.3 ± 0.6 kg
- Serum Ca ([6]; 100 pmole/kg p.o.): 9.9 ± 0.2 mg/100 ml
- Ash weight (femur) ([6]; 100 pmole/kg p.o.): 303 ± 29 mg
- Dry weight (femur) ([6]; 100 pmole/kg p.o.): 454 ± 42 mg
- Serum Pi ([6]; 300 pmole/kg p.o.): 4.3 ± 0.4 mg/100 ml
- Breaking load (femur) ([6]; 300 pmole/kg p.o.): 9.5 ± 1.1 kg
- Serum Ca ([6]; 300 pmole/kg p.o.): 10.3 ± 0.3 mg/100 ml
- Ash weight (femur) ([6]; 300 pmole/kg p.o.): 308 ± 33 mg
- Dry weight (femur) ([6]; 300 pmole/kg p.o.): 461 ± 47 mg
- serum calcium level [6, 11]: increased dose-dependently
- serum phosphorus level [6, 11]: increased dose-dependently

Compound: C=C1/C(=C\C=C2/CCC[C@]3(C)[C@@H]([C@H](C)CCC(F)(F)C(C)(C)O)CC[C@@H]23)C[C@@H](O)C[C@@H]1O [24,24-difluoro-1,25-(OH)2 D3]
- activity relative to 1,25-(OH)2 D3 [7]: at least as great if not greater activity

Compound: C=C1/C(=C\C=C2/CCC[C@]3(C)[C@@H]([C@H](C)CCCC(C)(C)O)CC[C@@H]23)C[C@@H](O)C[C@@H]1O [calcitriol, 1α,25-dihydroxyvitamin D3]
- dosage "window" or tolerance between effectiveness and toxicity ([4]; in view of Oloia et al and Tilyard et al): relatively small
- Hypercalciuria incidence [8]: all subjects
- bone formation [8]: no effect on bone formation
- bone resorption [8]: reducing bone resorption
- calcium absorption [8]: increasing calcium absorption
- hypercalcemia incidence [8]: 11 of 12 subjects
- bone loss ([8]; women with postmenopausal osteoporosis): reduced bone loss
- hypercalcemia ([9]; 0.5 μg per day (0.25 μg orally twice a day), average dietary calcium intake 800 mg): not accompanied by hypercalcemia of any severity; also recorded: limited potential to induce hypercalcemia
- rate of new vertebral fractures ([9]; 0.5 μg per day for three years, versus supplemental calcium 1 gram daily): significant reduction
- hypercalcemia [1, 10]: causing hypercalcemia

Compound: C=C1CC[C@H](O)C/C1=C/C=C1\CCC[C@]2(C)[C@@H]([C@H](C)CCCC(C)(C)O)CC[C@@H]12 [hydrate of 25-hydroxyvitamin D3, 25-hydroxyvitamin D3]
- hypercalcemia [1, 10]: danger of hypercalcemia
